Legend:
Type in all cases: cell-based, human
HepG2 cells [1] = experiment: Cell cycle analysis by PI staining / FACS; details: 48 h
Procedure: It is well documented that exposure to microtubule targeting agents leads to the malformed mitotic spindle which eventually leads to cell cycle arrest at the G2/M phase and apoptosis induction. Thus, the effect of the selected candidate 9 on the cell cycle progression of the HepG2 cell line was examined by flow cytometry analysis (FACS). The HepG2 cell line was treated with the IC50 concentration of compound 9 for 48 h.
Cell cycle analysis in HepG2 cells was carried out by FACS analysis according to the manufacturer’s directions. See Section 3.3.3 in Supplementary Material.
Figure 3 Compound 9 induces G2/M phase disturbance in HepG2 cells. (A) HepG2 cells were treated with 1.38 μM of compound 9 for 48 h. […]
(§1) To measure the cytotoxic activity of the synthesized derivatives 2a-11 in hepatocel-lular carcinoma (HepG2) cell line (ATCC Cat No. HB-8065) as well as normal human liver cell line HL-7702 (ATCC Cat. No. 77402), cell viability assay was assessed using MTT assay method. […] The color inten-sity of the formazan product, which represents the growth condition of the cells, is quan-tified by using an ELISA plate reader (EXL 800, USA) at 570 nm absorbance. […]
(§2) Compounds 9, 10 and 11 were evaluated for their tubulin inhibitory activity levels according to the manufacturer’s instructions using # abcam Human Beta-tubulin simplestep […]

HepG2 cells [2] = experiment: Mitochondrial membrane potential by flow cytometry; details: HepG2, 1.38 μM (IC50), 48 h
Procedure: Mitochondrial Membrane Potential (MMP) plays a vital role in the initiation of the apoptosis process. Loss of MMP is characteristic of an early stage of apoptosis.
MMP was measured by flow cytometry analysis in HepG2 cells according to the manufacturer’s directions. See Section 3.3.5 in Supplementary Material.
Figure 5 Compound 9 promotes MMP dissipation in HepG2 cells. (A) HepG2 cells were treated with 1.38 μM of compound 9 for 48 h. MMP was quantized using image-based flow cytometry. (B) The quantification of MMP in HepG2 cells after treatment with compound 9 at its IC50 concentration (μM). […]
as §1, §2

p53 = experiment: ELISA quantification of p53 level; details: HepG2, 1.38 μM (IC50), 48 h
Procedure: (§3) Compound 9 was screened for its ability to activate p53 and Bax as well as downregulate the level of Bcl-2 to investigate the mechanistic apoptotic pathway that catalyzed the apoptosis process. HepG2 cells were treated with compound 9 at a concentration equal to its IC50 in μM, and the level of p53, Bax, and Bcl-2 was quantized using ELISA analysis. The results obtained for compound 9 show the increase in the level of p53 and Bax by 8.91- and 4.50-fold, respectively, compared with the negative control samples.
(§4) Apoptotic markers (p53, Bax and Bcl-2) were measured in HepG2 cells using ELISA analysis according to the manufacturer’s directions. See Section 3.3.6 in Supplementary Material.
(§5) Figure 6 (A) The quantification of p53. (B) The quantification of Bax. (C) The quantification of Bcl-2. HepG2 cells were treated with 1.38 μM of compound 9 for 48 h and apoptotic markers were determined by ELISA assay.
(§6) 3.3.1. Cytotoxic activity evaluation
as §1

Bax = experiment: ELISA quantification of Bax level; details: HepG2, 1.38 μM (IC50), 48 h
Procedure: as §3, §4, §5, §6, §1

Bcl-2 = experiment: ELISA quantification of Bcl-2 level; details: HepG2, 1.38 μM (IC50), 48 h
Procedure: as §3, §4, §5, §6, §1

## COc1ccc(C2=N/C(=C\c3cc(OC)c(OC)c(OC)c3)C(=O)NN2c2ccccc2)cc1OC [Compound 9, (Z)-3-(3,4-Dimethoxyphenyl)-2-Phenyl-5-(3,4,5-Trimethoxybenzylidene)-1,2-Dihydro-1,2,4-Triazin-6(5H)-one]
HepG2 cells [1]; HepG2, 1.38 μM (IC50), control 13.28%
  G2/M cell population percentage: 30.83%
HepG2 cells [1]; HepG2, IC50 concentration
  fold increase in G2/M cell population compared to untreated control: ~3 fold
HepG2 cells [2]
  decrease in level of MMP compared with negative HepG2 cells: 3.12 fold
p53
  increase in level of p53 compared with negative control: 8.91 fold
Bax
  increase in level of Bax compared with negative control: 4.50 fold
Bcl-2
  decrease in level of Bcl-2 compared with negative control: 5.58 fold
